{"source": "patent US20210345614A1", "about": "“APPLICATION OF 7-CARBOXYBENZO[1,2,3]THIADIAZOLE AMIDES AS PLANT STIMULANTS” (ADAM MICKIEWICZ UNIVERSITY FOUNDATION, priority 2015, published 2021)", "key": {"[1]": {"tested_on": "Nicotiana tabacum var. xanthi", "experiment": "Phytotoxicity of BTHWA spray on tobacco under greenhouse conditions", "details": "5 to 1000 mg/L tested", "protocol": "Experiments were carried out on a model tobacco plant (Nicotiana tabacum var. xanthi) under greenhouse conditions, where the plant was in the three-developed leaves phase. The plants were sprayed (with full coverage of the leaves surface) with a solution of a working fluid having a concentration of active substance (BTHWA) starting from 5 and ending at 1000 mg/L The phytotoxicity of the BTHWA was evaluated."}, "[2]": {"tested_on": "Pseudomonas syringe pv. tomato", "experiment": "BTHWA effect on the infectivity of bacteria, growth in Mueller-Hinton broth", "type": "cell-based", "details": "BTHWA 40 mg/L formulation, after 2 days", "description": "Purified tobacco mosaic virus (TMV) at a concentration of approx. 3 μg/ml was mixed with N-methyl-N-methoxy-7-carboxybenzo[1,2,3]thiadiazole amide (BTHWA) formulation (concentration 40 mg/L) in a 1:1 volume ratio and incubated for 30 min at room temperature (treated leaves). The control was TMV incubated in water. Both virus suspensions were used to mechanically infect tobacco leaves cv. xanthi. Local necrotic spots (hypersensitivity, local infection) produced on the tobacco leaves were measured.\nThe procedure as described in Example 1 was followed, however, the bacterium Pseudomonas syringe pv. tomato was used. The suspensions formed were incubated in a Mueller-Hinton broth nutrition medium. After 2 days, the concentration of bacteria on the treated plates was compared to the control."}, "[3]": {"tested_on": "Tomato plants", "experiment": "Protection against abiotic stress in tomato caused by herbicide (glyphosate)", "type": "in vivo", "details": "watered twice 20 mg/L; glyphosate 0.005% aqueous solution; 10 days after herbicide application", "description": "(§1) Tomato plants in the phase of first pair of developed true leaves were watered twice with BTHWA at concentration of 20 mg/L, at a weekly intervals. Control tomato plants were treated with water only."}, "[4]": {"tested_on": "Pyrenophora teres", "experiment": "Field test on barley, fungal infection by Pyrenophora teres", "type": "in vivo, Hordeum vulgare (spring)", "details": "Example 27: BTHWA 20 mg/L with Trend 90 EC, six foliar applications at 10 days intervals; harvested 13 days after last treatment", "description": "The test was conducted on a variety of barley Hordeum vulgare (spring). As such, six applications of the active substance solution was made. The study was conducted on fields of about 25 m^2 in quadruplicate for each combination tested. […] (with the addition of commercial adjuvant) followed by treatment with common fungicide (tebukonazole in formulation containing 250 g of active substance to be applied per 1 ha) in reducing infection of fungi Pyrenophora teres in barley (Hordeum vulgare (spring)) was performed. […] Six applications of the active substance BTHWA solution were made. As a control, one application of fungicide was performed at the time as indicated on the product label. The study was conducted on fields of about 25 m^2 in quadruplicate for each combination tested. […] The fungicide was applied in an amount of 33% its recommended dose (83 g/ha). Six applications of the active substance BTHWA solution were made. As a control, one application of fungicide was performed at the time as indicated on the product label. The study was conducted on fields of about 25 m^2 in quadruplicate for each combination tested."}, "[5]": {"tested_on": "potato virus Y (PVY)", "experiment": "Field experiment on potato, PVY infection of tubers by DAS ELISA", "type": "in vivo, potato variety Altesse", "details": "for % of tubes infected by PVY Virus: field"}, "[6]": {"tested_on": "Rhynchosporium secalis", "experiment": "Field test on barley, fungal infection by Rhynchosporium secalis", "type": "in vivo, Hordeum vulgare (spring)", "details": "Example 28: BTHWA 20 mg/L with Trend 90 EC, six foliar applications at 10 days intervals; harvested 13 days after last treatment", "description": "The test was on a variety of barley Hordeum vulgare (spring). There were six applications of the active substance solution. The study was conducted on fields of about 25 m^2 in quadruplicate for each combination tested."}, "[7]": {"tested_on": "Tomato plants", "experiment": "Protection against abiotic stress in tomato caused by lack of water", "type": "in vivo", "details": "watered twice 20 mg/L; 10 days after cessation of watering", "description": "as §1, with “only. A week after the second treatment, plants were exposed to a stress factor in the form of lack of access to water.” for “only.”"}, "[8]": {"tested_on": "Tobacco plants", "experiment": "Protection against abiotic stress in tobacco caused by lack of water", "type": "in vivo", "details": "watered twice 20 mg/L; 10 days after cessation of watering", "description": "Tobacco plants at the stage of 3 developed leaves were watered twice with BTHWA at concentration of 20 mg/L, at a weekly intervals. Control […] plants were watered with water only. A week after the second treatment, plants were exposed to a stress factor in the form of lack of access to water."}, "[9]": {"tested_on": "Powdery mildew", "experiment": "Protection of tomato against fungal infection of Powdery mildew", "type": "in vivo, Tomato Lycopersicon esculentum Mill", "description": "Tomato plants in the phase of first pair of developed true leaves were watered twice with BTHWA at a concentration of 20 mg/L, at a weekly interval. Control tomato plants were treater with water only. One week after the second treatment with BTHWA, Powdery mildew fungi suspension was introduced to the leaf using an insulin syringe (without a needle). The suspension was prepared from a culture in solid medium solid. Protection against biotic stress was evaluated based on comparing the area of the leaves infected by the fungi. […] The procedure as described in Example 18 was followed, however, the plants were sprayed."}, "[10]": {"tested_on": "tobacco mosaic virus (TMV)", "experiment": "TMV-tobacco cv. xanthi model, protection against biotic stress (necrotic spots)", "type": "in vivo, Nicotiana tabacum cv. xanthi", "details": "sprayed twice at weekly intervals with 10 mg/L"}, "[11]": {"tested_on": "Brome Mosaic Virus BMV", "experiment": "Protection of barley against Brome Mosaic Virus infection by watering", "type": "in vivo", "description": "[…] Control barley plants were treated with water only. One week after the second application of BTHWA, in each plant, one young developed leaf was sprinkled with carborundum to obtain small scratches, which helped in the virus infection."}}, "note": "“And” between values parts separate entries of the source, which are not always exact repeats. Equal values may be shown once."}
{"smiles": "CON(C)C(=O)c1cccc2nnsc12", "note": "[BTHWA, N-methyl-N-methoxy-7-carboxybenzo[1,2,3]thiadiazole amide]", "values": [{"measurement": "concentration in the working fluid at which phytotoxic effects were observed (yellowing of the leaves, necrosis of leaves, growth inhibition)", "setting": "[1]", "result": "above 100 mg/L"}, {"measurement": "growth differences between the control medium and the treated medium", "setting": "[2]", "result": "< 5", "unit": "%"}, {"measurement": "lesser negative effect of the herbicide compared to the control", "setting": "[3]", "result": 30, "unit": "%"}, {"measurement": "% of infection", "setting": "[4]", "result": "17% and 17.50%"}, {"measurement": "reduction in the amount of PVY virus occurrence in the treated plants", "setting": "[5]; foliar application 20 mg/L of operational fluid, field conditions", "result": "~50", "unit": "%"}, {"measurement": "% of tubes infected by PVY Virus", "setting": "[5]; foliar application 20 mg/L with mineral oil adjuvant, 7 days intervals", "result": 44.2, "unit": "%"}, {"measurement": "% of tubes infected by PVY Virus", "setting": "[5]; tuber dressing 20 mg/L + foliar application 20 mg/L", "result": 40.7, "unit": "%"}, {"measurement": "% of infection", "setting": "[6]", "result": "10% and 10.63%"}, {"measurement": "total mass of the untreated plants lower than the weight of the treated plants", "setting": "[7]", "result": 10, "unit": "%"}, {"measurement": "total mass of the untreated plants lower than the weight of the treated plants", "setting": "[8]", "result": 13, "unit": "%"}, {"measurement": "protection against the effects of fungal infection", "setting": "[9]; 10 mg/L, watering and spraying", "result": "almost completely securing plants from the effects of fungal infection"}, {"measurement": "protection against the effects of fungal infection", "setting": "[9]; sprayed twice, 20 mg/L", "result": "fully protecting plants against the effects of fungal infection"}, {"measurement": "fungal infection and formation of infected leaf areas", "setting": "[9]; watered twice at a weekly interval, 20 mg/L", "result": "fungal infection and formation of infected areas were not observed"}, {"measurement": "protection against biotic stress caused by TMV infection", "setting": "[10]", "result": "protected the treated leaves against biotic stress"}, {"measurement": "biotic stress effects (disease symptoms) compared to control", "setting": "[11]; watered twice at weekly intervals with 70 ml of 20 mg/L, two weeks after BMV infection", "result": "showed no presence of biotic stress effects"}, {"measurement": "prevention of biotic stress caused by BMV infection", "setting": "[11]; watered with 10 mg/L", "result": 65, "unit": "%"}]}
